Laboratory results reported in patent US20250171461A1, “STIMULATOR OF INTERFERON GENES (STING) MODULATORS, AND COMPOSITIONS AND METHODS THEREOF” (Geode Therapeutics Inc., priority 2022, published 2025).

Key:
[1] = target: T1, human HAQ STING isoform (hSTING HAQ) (Homo sapiens, UniProt Q86WV6, G230A/H232R/R293Q/R71H); assay: IFN-β mRNA level in THP1 cells (qPCR, STING agonist cellular activity); assay type: cell-based; settings: compound at 3.6 μM, 2 hrs, IFNβ expression normalized against GAPDH by the 2^-ΔΔCT method, DMSO = 1.0
T1 construct: THP1 cells express the naturally occurring human HAQ STING isoform (hSTING HAQ); host or cells: THP1
Procedure, shortened: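 THP1 cells were seeded at 9×10^5 per well, incubated overnight, then treated with compound at 3.6 μM final (0.1% DMSO control) for 2 hrs at 37 °C. IFN-β mRNA was measured by SYBR Green qPCR, normalised to GAPDH by the 2^−ΔΔCT method, in triplicate.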

hERG channel = target: T2, hERG channel (Homo sapiens, UniProt Q12809); assay: hERG safety evaluation, manual whole cell patch clamp in hERG-expressing HEK 293 cells; assay type: cell-based; settings: hERG stably expressed HEK 293 cells, tail current, whole cell recording
T2 construct: host or cells: HEK 293
Protocol: (1) hERG stably expressed HEK 293 cell line (#60187) was purchased from BPS Bioscience and P3-P20 were used for the study. Cells were cultured in medium containing: 90% MEM, 10% FBS, 0.1 mM NEAA, 100 U/mL Penicillin-Streptomycin, 1 mM Na pyruvate and 500 μg/mL Geneticin. Cells are split about three times a week, and maintained between ˜40% to ˜80% confluence. 24 to 48 hours prior to recordings, the cells were plated on 0.05 mg/mL PDL pre-coated glass cover slips placed in 48-well plate at 1×10^4 cells. (2) The number of cells being plated on the cover slip should reach a confluence rate at which majority of the cells are single. (1) Test compounds were initially prepared in DMSO with final concentration of 10 mM as stock solution. (2) Compound was first made into 10, 3, 1, 0.3 and 0.1 mM DMSO stock, then serial diluted into the desired test concentrations in the extracellular solution (ECs). 30 uM test solution was diluted from 10 mM DMSO stock. The final DMSO concentration was in range of 0.1-0.3%. HEKA EPC 10 USB patch clamp amplifier (from HEKA Elektronik, Germany) was used in the whole cell recording. A cover slip with plenty of single HEK293 hERG cells on the surface was removed and placed into a continuously perfused (approximately 1 ml/minute) recording chamber mounted on an inverted microscope. HERG channel currents were recorded from single cells using standard whole cell recording techniques. The cells were voltage clamped at a holding potential of −80 mV. Then hERG current was activated by depolarizing at +30 mV for 5000 ms, after which the current was taken back to −50 mV for 5000 ms to remove the inactivation and observe the deactivating tail current. The K+ tail current through HERG channels observed during this step was allowed to stabilize under continuous bath perfusion. Cells were then superfused with drug until steady state block was achieved. Steady state was considered reached when three consecutive super-imposable current records were collected. At this point, cells were once again superfused with extracellular solution until the current amplitude returned to values close to those measured before application of drug. (1) Percent current inhibition was calculated using the following equation. (Note: PatchMaster was used to extract the peak current from the original data.) (2) The dose response curve of test compounds was plotted with % inhibition against the concentration of test compounds using Graphpad Prism 9.0, and fit the data to a log(inhibitor) vs. response—Variable slope curve.

T1 sequence (Q86WV6 whole entry R71H/G230A/H232R/R293Q, canonical isoform): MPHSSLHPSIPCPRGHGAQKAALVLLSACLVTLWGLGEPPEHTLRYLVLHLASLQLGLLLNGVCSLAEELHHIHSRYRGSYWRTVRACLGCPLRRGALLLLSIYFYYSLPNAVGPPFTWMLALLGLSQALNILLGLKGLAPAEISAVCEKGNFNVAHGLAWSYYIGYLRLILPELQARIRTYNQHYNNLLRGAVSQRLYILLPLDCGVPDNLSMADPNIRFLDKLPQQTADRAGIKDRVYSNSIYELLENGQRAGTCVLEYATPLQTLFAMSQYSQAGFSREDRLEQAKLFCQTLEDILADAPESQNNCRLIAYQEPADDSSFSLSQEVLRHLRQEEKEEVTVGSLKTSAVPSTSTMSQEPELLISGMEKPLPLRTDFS
T2 sequence (Q12809 whole entry): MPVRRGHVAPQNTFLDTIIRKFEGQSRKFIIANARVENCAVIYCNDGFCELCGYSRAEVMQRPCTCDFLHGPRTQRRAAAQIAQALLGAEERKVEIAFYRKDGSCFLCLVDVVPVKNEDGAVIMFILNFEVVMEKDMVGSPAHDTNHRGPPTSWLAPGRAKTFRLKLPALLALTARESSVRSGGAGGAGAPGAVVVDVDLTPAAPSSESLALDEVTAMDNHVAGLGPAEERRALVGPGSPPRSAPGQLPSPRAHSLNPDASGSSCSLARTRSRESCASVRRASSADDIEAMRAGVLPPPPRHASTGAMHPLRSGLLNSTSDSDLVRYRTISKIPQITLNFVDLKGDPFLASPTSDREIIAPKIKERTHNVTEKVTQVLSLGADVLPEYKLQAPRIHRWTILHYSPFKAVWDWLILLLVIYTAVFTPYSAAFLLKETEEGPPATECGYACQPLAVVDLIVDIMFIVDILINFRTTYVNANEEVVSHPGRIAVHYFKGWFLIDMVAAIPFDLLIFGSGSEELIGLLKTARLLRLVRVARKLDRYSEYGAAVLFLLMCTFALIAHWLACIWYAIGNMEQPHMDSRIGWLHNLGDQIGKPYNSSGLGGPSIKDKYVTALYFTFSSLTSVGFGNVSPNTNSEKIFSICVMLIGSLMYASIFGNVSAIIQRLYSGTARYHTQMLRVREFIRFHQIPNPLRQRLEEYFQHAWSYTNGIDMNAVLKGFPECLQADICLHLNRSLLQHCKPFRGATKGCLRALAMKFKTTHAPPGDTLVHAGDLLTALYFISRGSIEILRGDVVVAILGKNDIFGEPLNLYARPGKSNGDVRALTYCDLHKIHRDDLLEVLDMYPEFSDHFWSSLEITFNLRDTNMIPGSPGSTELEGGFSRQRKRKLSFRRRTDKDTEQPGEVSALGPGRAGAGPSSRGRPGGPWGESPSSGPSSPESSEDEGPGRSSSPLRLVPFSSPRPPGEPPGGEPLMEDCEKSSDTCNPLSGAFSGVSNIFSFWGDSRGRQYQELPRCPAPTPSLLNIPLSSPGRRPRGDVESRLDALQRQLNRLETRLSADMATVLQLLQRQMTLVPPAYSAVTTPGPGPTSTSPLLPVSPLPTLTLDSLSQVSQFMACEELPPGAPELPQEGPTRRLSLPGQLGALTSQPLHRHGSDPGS

COc1cc(CN(Cc2cn3c4c(c(F)c(F)cc4c2=O)OCC3C)[C@H]2CCCN(c3ccc(N)nc3)C2)ccn1 (stereo partly drawn) [Compound 1, 6-((((S)-1-(6-aminopyridin-3-yl)piperidin-3-yl)((2-methoxypyridin-4-yl)methyl)amino)methyl)-9,10-difluoro-3-methyl-2H-[1,4]oxazino[2,3,4-ij]quinolin-7(3H)-one]
Relative mRNA INFβ/GAPDH THP 1 [1]: 447.9 | IC50 (hERG channel): 1.58 µM

COc1cc(CN(Cc2cn3c4c(c(F)c(F)cc4c2=O)OCC3)[C@H]2CCCN(c3ccc(N)nc3)C2)ccn1 [Compound 66, (S)-6-(((1-(6-aminopyridin-3-yl)piperidin-3-yl)((2-methoxypyridin-4-yl)methyl)amino)methyl)-9,10-difluoro-2,3-dihydro-7H-[1,4]oxazino[2,3,4-ij]quinolin-7-one]
Relative mRNA INFβ/GAPDH THP 1 [1]: 7328.8 | IC50 (hERG channel): 2.72 µM

COc1cc(CN(Cc2cn3c4c(c(F)c(F)cc4c2=O)OCC3C(C)C)[C@H]2CCCN(c3ccc(N)nc3)C2)ccn1 (stereo partly drawn) [Compound 53, 6-((((S)-1-(6-aminopyridin-3-yl)piperidin-3-yl)((2-methoxypyridin-4-yl)methyl)amino)methyl)-9,10-difluoro-3-isopropyl-2H-[1,4]oxazino[2,3,4-ij]quinolin-7(3H)-one]
Relative mRNA INFβ/GAPDH THP 1 [1]: 433.0 | IC50 (hERG channel): 1.27 µM

COc1cc(CN(Cc2cn3c4c(c(F)c(F)cc4c2=O)CCC3)[C@H]2CCCN(c3ccc(N)nc3)C2)ccn1 [Compound 67, (S)-2-(((1-(6-aminopyridin-3-yl)piperidin-3-yl)((2-methoxypyridin-4-yl)methyl)amino)methyl)-8,9-difluoro-6,7-dihydro-1H,5H-pyrido[3,2,1-ij]quinolin-1-one]
Relative mRNA INFβ/GAPDH THP 1 [1]: 7398.9 | IC50 (hERG channel): 3.08 µM

COCC1COc2c(F)c(F)cc3c(=O)c(CN(Cc4ccnc(OC)c4)[C@H]4CCCN(c5ccc(N)nc5)C4)cn1c23 (stereo partly drawn) [Compound 82, 6-((((S)-1-(6-aminopyridin-3-yl)piperidin-3-yl)((2-methoxypyridin-4-yl)methyl)amino)methyl)-9,10-difluoro-3-(methoxymethyl)-2,3-dihydro-7H-[1,4]oxazino[2,3,4-ij]quinolin-7-one]
Relative mRNA INFβ/GAPDH THP 1 [1]: 349.0 | IC50 (hERG channel): 3.14 µM

COc1cc(CN(Cc2cn3c4c(c(N5CCN(C)CC5)c(F)cc4c2=O)OCC3C)[C@H]2CCCN(c3ccc(N)nc3)C2)ccn1 (stereo partly drawn) [Compound 29, 6-((((S)-1-(6-aminopyridin-3-yl)piperidin-3-yl)((2-methoxypyridin-4-yl)methyl)amino)methyl)-9-fluoro-3-methyl-10-(4-methylpiperazin-1-yl)-2H-[1,4]oxazino[2,3,4-ij]quinolin-7(3H)-one]
Relative mRNA INFβ/GAPDH THP 1 [1]: 3330.1 | IC50 (hERG channel): 34.1 µM

COc1cc(CN(Cc2cn3c4c(c(F)c(F)cc4c2=O)SCC3)[C@H]2CCCN(c3ccc(N)nc3)C2)ccn1 [Compound 69, 9,10-difluoro-6-({[(3S)-1-(6-aminopyridin-3-yl)hexahydropyridin-3-yl][(2-methoxypyridin-4-yl)methyl]amino}methyl)-3,7-dihydro-2H-[1,4]thiazino[2,3,4-ij]quinolin-7-one]
Relative mRNA INFβ/GAPDH THP 1 [1]: 9547.9 | IC50 (hERG channel): 1.94 µM

Nc1ccc(N2CCC[C@H](N(Cc3ccc(Cl)nc3)Cc3cn4c5c(c(F)c(F)cc5c3=O)OCC4)C2)cn1 [Compound 76, (S)-6-(((1-(6-aminopyridin-3-yl)piperidin-3-yl)((6-chloropyridin-3-yl)methyl)amino)methyl)-9,10-difluoro-2,3-dihydro-7H-[1,4]oxazino[2,3,4-ij]quinolin-7-one]
Relative mRNA INFβ/GAPDH THP 1 [1]: 0.8

COc1cc(CN(Cc2cn3c4c(c(N5CCCCC5=O)c(F)cc4c2=O)OCC3C)[C@H]2CCCN(c3ccc(N)nc3)C2)ccn1 (stereo partly drawn) [Compound 60, 6-((((S)-1-(6-aminopyridin-3-yl)piperidin-3-yl)((2-methoxypyridin-4-yl)methyl)amino)methyl)-9-fluoro-3-methyl-10-(2-oxopiperidin-1-yl)-2H-[1,4]oxazino[2,3,4-ij]quinolin-7(3H)-one]
Relative mRNA INFβ/GAPDH THP 1 [1]: 174.3

COc1cc(CN(Cc2cn3c4c(c(F)c(F)cc4c2=O)OCC3C)[C@H]2CCCN(c3ccc(N4CCCC4)nc3)C2)ccn1 (stereo partly drawn) [Compound 17, 9,10-difluoro-6-((((2-methoxypyridin-4-yl)methyl)((S)-1-(6-(pyrrolidin-1-yl)pyridin-3-yl)piperidin-3-yl)amino)methyl)-3-methyl-2H-[1,4]oxazino[2,3,4-ij]quinolin-7(3H)-one]
Relative mRNA INFβ/GAPDH THP 1 [1]: 6.7

COc1cc(CN(Cc2cn3c4c(c(N5CCN(C)CC5)c(F)cc4c2=O)OCC3C(C)C)[C@H]2CCCN(c3ccc(N)nc3)C2)ccn1 (stereo partly drawn) [Compound 96, 6-((((S)-1-(6-aminopyridin-3-yl)piperidin-3-yl)((2-methoxypyridin-4-yl)methyl)amino)methyl)-9-fluoro-3-isopropyl-10-(4-methylpiperazin-1-yl)-2,3-dihydro-7H-[1,4]oxazino[2,3,4-ij]quinolin-7-one]
Relative mRNA INFβ/GAPDH THP 1 [1]: 451.1

COc1cc(CN(Cc2cn3c4c(c(F)c(F)cc4c2=O)OCC3C)[C@H]2CCCN(c3ccc(NC(C)=O)nc3)C2)ccn1 (stereo partly drawn) [Compound 7, N-(5-((3S)-3-(((9,10-difluoro-3-methyl-7-oxo-3,7-dihydro-2H-[1,4]oxazino[2,3,4-ij]quinolin-6-yl)methyl)((2-methoxypyridin-4-yl)methyl)amino)piperidin-1-yl)pyridin-2-yl)acetamide]
Relative mRNA INFβ/GAPDH THP 1 [1]: 65.3

COc1cc(CN(Cc2cn3c4c(c(N5CCC(O)CC5)c(F)cc4c2=O)OCC3C)[C@H]2CCCN(c3ccc(N)nc3)C2)ccn1 (stereo partly drawn) [Compound 31, 6-((((S)-1-(6-aminopyridin-3-yl)piperidin-3-yl)((2-methoxypyridin-4-yl)methyl)amino)methyl)-9-fluoro-10-(4-hydroxypiperidin-1-yl)-3-methyl-2H-[1,4]oxazino[2,3,4-ij]quinolin-7(3H)-one]
Relative mRNA INFβ/GAPDH THP 1 [1]: 1162.4

COc1cc(CN(Cc2cn3c4c(c(F)c(F)cc4c2=O)OCC3)[C@H]2CCCN(c3ccc(NCC4CC4)nc3)C2)ccn1 [Compound 99, (S)-6-(((1-(6-((cyclopropylmethyl)amino)pyridin-3-yl)piperidin-3-yl)((2-methoxypyridin-4-yl)methyl)amino)methyl)-9,10-difluoro-2,3-dihydro-7H-[1,4]oxazino[2,3,4-ij]quinolin-7-one]
Relative mRNA INFβ/GAPDH THP 1 [1]: 368.7

COc1cc(CN(Cc2cn3c4c(c(F)c(F)cc4c2=O)OCC3(C)C)[C@H]2CCCN(c3ccc(N)nc3)C2)ccn1 [Compound 48, (S)-6-(((1-(6-aminopyridin-3-yl)piperidin-3-yl)((2-methoxypyridin-4-yl)methyl)amino)methyl)-9,10-difluoro-3,3-dimethyl-2H-[1,4]oxazino[2,3,4-ij]quinolin-7(3H)-one]
Relative mRNA INFβ/GAPDH THP 1 [1]: 1202.3

Nc1ccc(N2CCC[C@H](N(Cc3ccccc3)Cc3cn4c5c(c(F)c(F)cc5c3=O)OCC4)C2)cn1 [Compound 72, (S)-6-(((1-(6-aminopyridin-3-yl)piperidin-3-yl)(benzyl)amino)methyl)-9,10-difluoro-2,3-dihydro-7H-[1,4]oxazino[2,3,4-ij]quinolin-7-one]
Relative mRNA INFβ/GAPDH THP 1 [1]: 31.9

COc1cc(CN(Cc2cn3c4c(c(-c5ccc(CCO)cn5)c(F)cc4c2=O)OCC3C)[C@H]2CCCN(c3ccc(N)nc3)C2)ccn1 (stereo partly drawn) [Compound 64, 6-((((S)-1-(6-aminopyridin-3-yl)piperidin-3-yl)((2-methoxypyridin-4-yl)methyl)amino)methyl)-9-fluoro-10-(5-(2-hydroxyethyl)pyridin-2-yl)-3-methyl-2H-[1,4]oxazino[2,3,4-ij]quinolin-7(3H)-one]
Relative mRNA INFβ/GAPDH THP 1 [1]: 26.6
